Test system: DLD-1 BRCA2−/− cells
Test: Homologous recombination synthetic lethal inhibition of proliferation, DLD-1 BRCA2-/- (Cell Titre Glo 3D)
Assay type: cell-based
Details: DLD-1 BRCA2-/-
Outline: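 Isogenic DLD-1 pair; BRCA2−/− seeded 3,000 cells/mL and read day 12, wt seeded 1,500 cells/mL and read day 7. 10-pt titration (top 10 μM, 3-fold), re-fed with compound day 6, 37 °C/5% CO2. CTG 3D endpoint; IC50 at 50% signal loss.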

**Q.** Cc1ccnc(Cn2c(-c3ccc(OCC(=O)N(C)[C@H]4C[C@@H](O)C4)cc3Cl)nc3c(OC4(C)CC4)ncnc32)c1 [Example T582, 2-(3-chloro-4-(6-(1-methylcyclopropoxy)-9-((4-methylpyridin-2-yl)methyl)-9H-purin-8-yl)phenoxy)-N-((1s,3s)-3-hydroxycyclobutyl)-N-methylacetamide] was tested. Which “POLQ PD Prolif Lumin” value did it give?
**A.** 6.2

Same assay, conditions: DLD-1 BRCA2 −/−, mean

**Q.** CC1(Oc2ncnc3c2nc(-c2ccc(O[C@H]4CC[C@@H](C(=O)O)CC4)cc2Cl)n3Cc2ccccc2C#N)CC1 [Example U16, (1s,4s)-4-(3-chloro-4-(9-(2-cyanobenzyl)-6-(1-methylcyclopropoxy)-9H-purin-8-yl)phenoxy)cyclohexane-1-carboxylic acid] was tested. Which “POLQ PD Prolif Lumin BRCA2 −/− mean pIC50” value did it give?
**A.** 6.4

**Q.** How did the “POLQ PD Prolif Lumin BRCA2 −/− mean pIC50” value turn out when CC1(Oc2ncnc3c2nc(-c2ccc(O[C@H]4CC[C@H](C(=O)O)CC4)cc2Cl)n3Cc2ccccc2C#N)CC1 [Example U19, (1r,4r)-4-(3-chloro-4-(9-(2-cyanobenzyl)-6-(1-methylcyclopropoxy)-9H-purin-8-yl)phenoxy)cyclohexane-1-carboxylic acid] was run?
**A.** 6.6

**Q.** For CC1(Oc2ncnc3c2nc(-c2ccc(OC[C@H]4C[C@H](C(=O)O)C4)cc2Cl)n3Cc2ccccc2C#N)CC1 [Example U27, (1r,3r)-3-((3-chloro-4-(9-(2-cyanobenzyl)-6-(1-methylcyclopropoxy)-9H-purin-8-yl)phenoxy)methyl)cyclobutane-1-carboxylic acid], which “POLQ PD Prolif Lumin BRCA2 −/− mean pIC50” value is on record?
**A.** 6.7

**Q.** For CC1(Oc2ncnc3c2nc(-c2ccc(O[C@H]4CC[C@@H](C(=O)O)CC4)cc2Cl)n3Cc2cc(Cl)ccc2F)CC1 [Example U44, (1s,4s)-4-(3-chloro-4-(9-(5-chloro-2-fluorobenzyl)-6-(1-methylcyclopropoxy)-9H-purin-8-yl)phenoxy)cyclohexane-1-carboxylic acid], which “POLQ PD Prolif Lumin BRCA2 −/− mean pIC50” value is on record?
**A.** 7.2

Same assay, conditions: Homo sapiens, DLD-1, DLD-1 BRCA2 −/−, mean; read-out: POLQ PD Prolif Lumin BRCA2 −/− mean pIC50 (converted)

**Q.** CC1(Oc2ncnc3c2nc(-c2ccc(OCC4(CC(=O)O)CC4)cc2Cl)n3Cc2ccccc2C#N)CC1 [Example U15, 2-(1-((3-chloro-4-(9-(2-cyanobenzyl)-6-(1-methylcyclopropoxy)-9H-purin-8-yl)phenoxy)methyl)cyclopropyl)acetic acid] was tested. Which IC50 did it give?
**A.** 794 nM

**Q.** With CC1(Oc2ncnc3c2nc(-c2ccc(OCCC(C)(C)C(=O)O)cc2Cl)n3Cc2ccccc2C#N)CC1 [Example U17, 4-(3-chloro-4-(9-(2-cyanobenzyl)-6-(1-methylcyclopropoxy)-9H-purin-8-yl)phenoxy)-2,2-dimethylbutanoic acid] as the molecule, how does the IC50 read?
**A.** 251 nM

**Q.** CC1(Oc2ncnc3c2nc(-c2ccc(CCCCC(=O)O)cc2Cl)n3Cc2ccccc2C#N)CC1 [Example U20, 5-(3-chloro-4-(9-(2-cyanobenzyl)-6-(1-methylcyclopropoxy)-9H-purin-8-yl)phenyl)pentanoic acid] was tested. Which IC50 did it give?
**A.** 251 nM

**Q.** For CC1(Oc2ncnc3c2nc(-c2ccc(OCCCC(C)(C)C(=O)O)cc2Cl)n3Cc2ccccc2C#N)CC1 [Example U21, 5-(3-chloro-4-(9-(2-cyanobenzyl)-6-(1-methylcyclopropoxy)-9H-purin-8-yl)phenoxy)-2,2-dimethylpentanoic acid], which IC50 is on record?
**A.** 158 nM

**Q.** For CC1(Oc2ncnc3c2nc(-c2cccc(OCCC(=O)O)c2Cl)n3Cc2cc(Cl)ccc2F)CC1 [Example U32, 3-(2-chloro-3-(9-(5-chloro-2-fluorobenzyl)-6-(1-methylcyclopropoxy)-9H-purin-8-yl)phenoxy)propanoic acid], which IC50 is on record?
**A.** 39.8 nM

**Q.** CC1(Oc2ncnc3c2nc(-c2ccc(OCCC(C)(C)C(=O)O)cc2Cl)n3Cc2cc(Cl)ccc2F)CC1 [Example U46, 4-(3-chloro-4-(9-(5-chloro-2-fluorobenzyl)-6-(1-methylcyclopropoxy)-9H-purin-8-yl)phenoxy)-2,2-dimethylbutanoic acid] was tested. Which IC50 did it give?
**A.** 31.6 nM

Same assay, conditions: Homo sapiens, DLD-1, first proliferation column; DLD-1 BRCA2-/-; read-out: POLQ PD Prolif Lumin (converted)

**Q.** For Cc1ccnc(Cn2c(-c3ccc(OCC(=O)N4CCC[C@H]4CO)cc3Cl)nc3c(OC4(C)CC4)ncnc32)c1 [Example T576, (S)-2-(3-chloro-4-(6-(1-methylcyclopropoxy)-9-((4-methylpyridin-2-yl)methyl)-9H-purin-8-yl)phenoxy)-1-(2-(hydroxymethyl)pyrrolidin-1-yl)ethan-1-one], which IC50 is on record?
**A.** 501 nM

**Q.** Which IC50 does the source give for CO[C@H]1CCN(C(=O)COc2ccc(-c3nc4c(OC5(C)CC5)ncnc4n3Cc3cc(C)ccn3)c(Cl)c2)C1 [Example T577, (S)-2-(3-chloro-4-(6-(1-methylcyclopropoxy)-9-((4-methylpyridin-2-yl)methyl)-9H-purin-8-yl)phenoxy)-1-(3-methoxypyrrolidin-1-yl)ethan-1-one] here?
**A.** 398 nM

**Q.** For Cc1ccnc(Cn2c(-c3ccc(OCC(=O)N4CC[C@@H](CO)C4)cc3Cl)nc3c(OC4(C)CC4)ncnc32)c1 [Example T578, (R)-2-(3-chloro-4-(6-(1-methylcyclopropoxy)-9-((4-methylpyridin-2-yl)methyl)-9H-purin-8-yl)phenoxy)-1-(3-(hydroxymethyl)pyrrolidin-1-yl)ethan-1-one], which IC50 is on record?
**A.** 631 nM

**Q.** Which IC50 does the source give for Cc1ccnc(Cn2c(-c3ccc(OCC(=O)N4CCC[C@@H]4CO)cc3Cl)nc3c(OC4(C)CC4)ncnc32)c1 [Example T579, (R)-2-(3-chloro-4-(6-(1-methylcyclopropoxy)-9-((4-methylpyridin-2-yl)methyl)-9H-purin-8-yl)phenoxy)-1-(2-(hydroxymethyl)pyrrolidin-1-yl)ethan-1-one] here?
**A.** 501 nM

**Q.** Which IC50 does the source give for Cc1ccnc(Cn2c(-c3ccc(OCC(=O)N4CCC(O)CC4)cc3Cl)nc3c(OC4(C)CC4)ncnc32)c1 [Example T580, 2-(3-chloro-4-(6-(1-methylcyclopropoxy)-9-((4-methylpyridin-2-yl)methyl)-9H-purin-8-yl)phenoxy)-1-(4-hydroxypiperidin-1-yl)ethan-1-one] here?
**A.** 501 nM

**Q.** With Cc1ccnc(Cn2c(-c3ccc(OCC(=O)N4CC[C@@](C)(O)C4)cc3Cl)nc3c(OC4(C)CC4)ncnc32)c1 [Example T581, (R)-2-(3-chloro-4-(6-(1-methylcyclopropoxy)-9-((4-methylpyridin-2-yl)methyl)-9H-purin-8-yl)phenoxy)-1-(3-hydroxy-3-methylpyrrolidin-1-yl)ethan-1-one] as the molecule, how does the IC50 read?
**A.** 501 nM

**Q.** For Cc1ccnc(Cn2c(-c3ccc(OCC(=O)N(C)CC4(O)CC4)cc3Cl)nc3c(OC4(C)CC4)ncnc32)c1 [Example T583, 2-(3-chloro-4-(6-(1-methylcyclopropoxy)-9-((4-methylpyridin-2-yl)methyl)-9H-purin-8-yl)phenoxy)-N-((1-hydroxycyclopropyl)methyl)-N-methylacetamide], which IC50 is on record?
**A.** 2000 nM

**Q.** Which IC50 does the source give for Cc1ccnc(Cn2c(-c3ccc(O[C@H]4CCN(C(=O)[C@@H](C)O)C4)cc3Cl)nc3c(OC4(C)CC4)ncnc32)c1 [Example T584, (R)-1-((S)-3-(3-chloro-4-(6-(1-methylcyclopropoxy)-9-((4-methylpyridin-2-yl)methyl)-9H-purin-8-yl)phenoxy)pyrrolidin-1-yl)-2-hydroxypropan-1-one] here?
**A.** 794 nM

**Q.** For Cc1ccnc(Cn2c(-c3ccc(N4CCN5CCC[C@H]5C4)cc3Cl)nc3c(OC4(C)CC4)ncnc32)c1 [Example T585, (S)-8-(2-chloro-4-(hexahydropyrrolo[1,2-a]pyrazin-2(1H)-yl)phenyl)-6-(1-methylcyclopropoxy)-9-((4-methylpyridin-2-yl)methyl)-9H-purine], which IC50 is on record?
**A.** 200 nM

**Q.** How did the IC50 turn out when Cc1ccnc(Cn2c(-c3ccc(N4CCC5(CCN5)CC4)cc3Cl)nc3c(OC4(C)CC4)ncnc32)c1 [Example T586, 8-(2-chloro-4-(1,7-diazaspiro[3.5]nonan-7-yl)phenyl)-6-(1-methylcyclopropoxy)-9-((4-methylpyridin-2-yl)methyl)-9H-purine] was run?
**A.** 1580 nM

**Q.** Which IC50 does the source give for Cc1ccnc(Cn2c(-c3ccc(C(=O)N4CC(N5CCCC5)C4)cc3Cl)nc3c(OC4(C)CC4)ncnc32)c1 [Example T602, (3-chloro-4-(6-(1-methylcyclopropoxy)-9-((4-methylpyridin-2-yl)methyl)-9H-purin-8-yl)phenyl)(3-(pyrrolidin-1-yl)azetidin-1-yl)methanone] here?
**A.** 1260 nM

**Q.** With Cc1ccnc(Cn2c(-c3ccc(CC(=O)N4CC(N5CCC5)C4)cc3Cl)nc3c(OC4(C)CC4)ncnc32)c1 [Example T603, 1-([1,3′-biazetidin]-1′-yl)-2-(3-chloro-4-(6-(1-methylcyclopropoxy)-9-((4-methylpyridin-2-yl)methyl)-9H-purin-8-yl)phenyl)ethan-1-one] as the molecule, how does the IC50 read?
**A.** 794 nM

**Q.** CC1(Oc2ncnc3c2nc(-c2ccc(OCCN4C5CCC4CNC5)cc2Cl)n3Cc2ccccc2)CC1 [Example T605, 8-(4-(2-(3,8-diazabicyclo[3.2.1]octan-8-yl)ethoxy)-2-chlorophenyl)-9-benzyl-6-(1-methylcyclopropoxy)-9H-purine] was tested. Which IC50 did it give?
**A.** 158 nM

**Q.** With CC(=O)N1CCN(CCOc2ccc(-c3nc4c(OC5(C)CC5)ncnc4n3Cc3cc(C)ccn3)c(Cl)c2)CC1 [Example T607, 1-(4-(2-(3-chloro-4-(6-(1-methylcyclopropoxy)-9-((4-methylpyridin-2-yl)methyl)-9H-purin-8-yl)phenoxy)ethyl)piperazin-1-yl)ethan-1-one] as the molecule, how does the IC50 read?
**A.** 126 nM

**Q.** With CC(C)(C)Oc1cccc2c1nc(-c1ccc(OCCN3CCNCC3)cc1Cl)n2Cc1cccc(Cl)c1 [Example T608, 4-(tert-butoxy)-2-(2-chloro-4-(2-(piperazin-1-yl)ethoxy)phenyl)-1-(3-chlorobenzyl)-1H-benzo[d]imidazole] as the molecule, how does the IC50 read?
**A.** 501 nM

**Q.** Which IC50 does the source give for Cc1ccnc(Cn2c(-c3ccc(OCCN4CCN(C)CC4)cc3Cl)nc3c(OC(C)(C)C)nccc32)c1 [Example T610, 4-(tert-butoxy)-2-(2-chloro-4-(2-(4-methylpiperazin-1-yl)ethoxy)phenyl)-1-((4-methylpyridin-2-yl)methyl)-1H-imidazo[4,5-c]pyridine] here?
**A.** > 7940 nM

**Q.** For CC1(Oc2cccc3c2nc(-c2ccc(OCCN4CCNCC4)cc2Cl)n3Cc2cccc(Cl)c2)CCC1 [Example T611, 2-(2-chloro-4-(2-(piperazin-1-yl)ethoxy)phenyl)-1-(3-chlorobenzyl)-4-(1-methylcyclobutoxy)-1H-benzo[d]imidazole], which IC50 is on record?
**A.** 316 nM

From patent publication US20250195530A1, “POLQ INHIBITORS” (ASTRAZENECA AB, priority 2022, published 2025)
